Test results published in paper PMC10605449 (Biosensors, 2023).

Legend:
[1] = biological target: T1, YAP(2-268):TEAD1(209-436) interaction (Homo sapiens, UniProt P28347); experiment: SPR, inhibition of YAP:TEAD1 interaction: TEAD1 pre-incubated with binder, injected over cellular biotinylated YAP(2-268); type: binding; conditions: for Effect on YAP(2-268):TEAD1 interaction compared with TEAD1 apo-form: TEAD1 incubated with saturating concentration (30 µM) of binder
T1 construct: made in house; host or cells: YAP: E. coli BL21 Star (DE3) pRARE2 lysate
T1 sequence (P28347 209-426): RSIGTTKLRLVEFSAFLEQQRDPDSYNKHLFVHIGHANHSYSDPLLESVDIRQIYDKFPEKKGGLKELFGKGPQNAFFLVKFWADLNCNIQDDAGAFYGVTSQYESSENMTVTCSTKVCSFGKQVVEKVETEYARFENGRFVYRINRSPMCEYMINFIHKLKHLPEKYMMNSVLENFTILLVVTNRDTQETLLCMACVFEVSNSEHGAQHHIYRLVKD
Description: The cellular biotinylated YAP(2-268) protein, as well as the biotinylated YAP(61-100) peptide, were immobilized using a similar approach as that described previously. However, neutravidin protein (ThermoFisher Scientific) was used as the selected pre-coated surface on a CM5 Series S sensor chip instead of streptavidin. […] The remaining activated groups were then blocked with ethanolamine-HCl. […] The interaction analysis cycles consisted of 120 s of sample injection followed by 280 s of running buffer flow. The experiment was performed at 15 °C. To ensure that the surface integrity of the cellular biotinylated YAP remained intact and that the interaction kinetic profile with TEAD1 was restored, an additional injection of TEAD1 apo-form was performed at the end of each experiment. All sensorgrams were processed by first subtracting the binding response recorded from the control surface (reference spot, where only the avidin protein is immobilized), followed by subtraction of the buffer blank injection from the reaction spot. All datasets were fitted to a simple 1:1 Langmuir interaction model to determine the kinetic rate constants, and the interaction affinity was additionally calculated at a steady state when applicable. In cases where small molecules were present during the assay, a DMSO solvent correction (1–3%) was applied to account for variations in bulk signal and to achieve high-quality data. The experiments with immobilized purified proteins were performed on a Biacore 4000 (Cytiva, Uppsala, Sweden), and the interaction was evaluated using the provided Biacore 4000 evaluation software, while the experiments with soluble cell lysates on a Biacore T200 (Cytiva, Uppsala, Sweden) used the provided Biacore T200 evaluation software. All SPR experiments were performed in duplicate.

[2] = biological target: T2, TEAD1 (Homo sapiens, UniProt P28347); experiment: Binary complex formation of TEAD1 to TEAD binders, SPR; type: binding; conditions: data not shown
T2 sequence (P28347 whole entry): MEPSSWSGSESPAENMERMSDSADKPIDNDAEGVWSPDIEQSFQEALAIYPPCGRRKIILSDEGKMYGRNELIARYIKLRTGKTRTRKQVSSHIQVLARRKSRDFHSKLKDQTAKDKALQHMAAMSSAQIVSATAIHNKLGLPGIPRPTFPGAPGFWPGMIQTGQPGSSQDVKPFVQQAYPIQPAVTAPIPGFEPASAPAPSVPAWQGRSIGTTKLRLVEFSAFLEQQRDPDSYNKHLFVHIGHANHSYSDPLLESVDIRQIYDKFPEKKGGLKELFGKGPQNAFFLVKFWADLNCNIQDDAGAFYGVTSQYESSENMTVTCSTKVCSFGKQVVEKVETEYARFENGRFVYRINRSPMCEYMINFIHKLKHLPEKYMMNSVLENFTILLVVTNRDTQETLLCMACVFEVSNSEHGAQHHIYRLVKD

[3] = biological target: T2, TEAD1; experiment: Binary complex formation of TEAD1 to TEAD binders, biochemical assays; conditions: data not shown
[4] = biological target: T3, DKC1(1-514) (Homo sapiens, UniProt O60832); experiment: SPR Extract2Chip, cellular biotinylated DKC1(1-514), RuvBL1/RuvBL2 injected; type: binding
T3 construct: The cellular biotinylated His6-DKC1(1-514)-AviTag was immobilized using the approach described in Section 2.5.2; made in house; host or cells: E. coli BL21(DE3), co-expressed with BirA; soluble lysate used without purification
T3 sequence (O60832 1-514): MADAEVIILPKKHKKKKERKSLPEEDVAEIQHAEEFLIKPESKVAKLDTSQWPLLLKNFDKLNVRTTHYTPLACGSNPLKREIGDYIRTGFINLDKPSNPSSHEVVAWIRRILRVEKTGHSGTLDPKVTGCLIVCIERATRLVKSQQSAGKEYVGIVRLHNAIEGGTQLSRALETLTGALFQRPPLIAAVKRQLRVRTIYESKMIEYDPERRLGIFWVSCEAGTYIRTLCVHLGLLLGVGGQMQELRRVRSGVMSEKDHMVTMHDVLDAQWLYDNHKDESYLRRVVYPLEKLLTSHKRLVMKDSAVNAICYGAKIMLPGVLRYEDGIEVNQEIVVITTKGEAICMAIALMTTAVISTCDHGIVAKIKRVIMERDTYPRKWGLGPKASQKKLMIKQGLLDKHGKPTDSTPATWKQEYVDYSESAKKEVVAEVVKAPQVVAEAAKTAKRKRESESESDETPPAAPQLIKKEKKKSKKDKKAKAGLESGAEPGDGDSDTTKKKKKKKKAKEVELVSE
Experimental: The cellular biotinylation of the DKC1(1-514) protein followed the same approach as that described for CypD. DKC1(1-514) was expressed in BL21(DE3) in LB media and induced with 500 µM IPTG overnight at 18 °C. The PD-10 Desalting column was equilibrated with buffer U (50 mM HEPES pH 6.5, 750 mM KCl, 0.5 mM EDTA, and 0.5 mM TCEP).
The cellular biotinylated His6-DKC1(1-514)-AviTag was immobilized using the approach described in Section 2.5.2. The soluble cell lysate was diluted to 15 µg/mL and coupled with 150 and 300 s injection times to reach 130 to 175 RU. […]
All sensorgrams were processed by first subtracting the binding response recorded from the control surface (reference spot, where only the avidin protein is immobilized), followed by subtraction of the buffer blank injection from the reaction spot. All datasets were fitted to a simple 1:1 Langmuir interaction model to determine the kinetic rate constants, and the interaction affinity was additionally calculated at a steady state when applicable. […] The experiments with immobilized purified proteins were performed on a Biacore 4000 (Cytiva, Uppsala, Sweden), and the interaction was evaluated using the provided Biacore 4000 evaluation software, while the experiments with soluble cell lysates on a Biacore T200 (Cytiva, Uppsala, Sweden) used the provided Biacore T200 evaluation software. […]

[5] = biological target: T4, His6-RuvBL1(1-456)/RuvBL2(1-463) (UniProt Q9Y265 1-456; Q9Y230 1-463); experiment: SPR; cellular biotinylated His6-DKC1(1-514)-AviTag captured from soluble cell lysate (130 to 175 RU) on neutravidin-coated CM5 chip; RuvBL1/RuvBL2 complexes injected, 10 concentrations, 2-fold series from 0.05 µM; 20 mM NaKPi pH 7.5, 150 mM NaCl, 5 mM MgCl2, 1 mM DTT, 0.05% Tween 20; 25 °C; 1:1 Langmuir fit; conditions: one partner purified
T4 construct: RuvBL1, residues 1-456; RuvBL2, residues 1-463; also called RuvBL1/RuvBL2; AAA+ ATPases RuvBL1/RuvBL2; not shown: His6, N-terminal, kept
T4 sequence (Q9Y265 whole entry, chain 1 of 2, the tested form may be a part): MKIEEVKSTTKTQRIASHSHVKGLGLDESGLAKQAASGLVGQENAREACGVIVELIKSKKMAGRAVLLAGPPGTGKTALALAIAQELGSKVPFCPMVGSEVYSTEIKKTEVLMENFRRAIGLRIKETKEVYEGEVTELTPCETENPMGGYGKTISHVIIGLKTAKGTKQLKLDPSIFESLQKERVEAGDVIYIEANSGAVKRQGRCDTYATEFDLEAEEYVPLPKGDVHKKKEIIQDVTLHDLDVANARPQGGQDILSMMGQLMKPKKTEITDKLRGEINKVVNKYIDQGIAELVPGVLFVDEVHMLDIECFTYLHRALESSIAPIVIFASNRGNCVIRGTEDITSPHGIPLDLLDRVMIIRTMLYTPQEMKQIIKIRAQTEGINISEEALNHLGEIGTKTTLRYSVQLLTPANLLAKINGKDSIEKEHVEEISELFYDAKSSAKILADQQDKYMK
T4 sequence (Q9Y230 whole entry, chain 2 of 2, the tested form may be a part): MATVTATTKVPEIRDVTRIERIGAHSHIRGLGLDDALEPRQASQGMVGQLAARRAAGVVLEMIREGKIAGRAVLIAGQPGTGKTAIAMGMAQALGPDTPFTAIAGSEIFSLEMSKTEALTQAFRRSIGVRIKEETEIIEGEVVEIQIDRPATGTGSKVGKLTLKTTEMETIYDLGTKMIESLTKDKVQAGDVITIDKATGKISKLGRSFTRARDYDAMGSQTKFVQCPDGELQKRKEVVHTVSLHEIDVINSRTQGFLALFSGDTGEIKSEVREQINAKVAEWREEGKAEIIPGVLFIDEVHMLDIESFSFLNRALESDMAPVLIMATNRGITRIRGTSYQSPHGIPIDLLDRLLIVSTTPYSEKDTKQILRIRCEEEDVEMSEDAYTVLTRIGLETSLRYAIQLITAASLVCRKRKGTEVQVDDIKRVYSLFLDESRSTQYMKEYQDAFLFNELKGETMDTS

[6] = TEAD1 incubated with 30 µM binder 18 h at 30 °C, 15 °C

## CCCC[C@@H]1NC(=O)[C@H](CCCCN)NC(=O)[C@H](CCCNC(=N)N)NC(=O)[C@H](CC(C)C)NC(=O)[C@@H](NC(=O)[C@H](Cc2cccc(Cl)c2)NC(=O)[C@@H]2CCCN2C(=O)[C@@H](NC(C)=O)C(C)C)CCSSC[C@@H](C(=O)N[C@@H](CCCCN)C(=O)N2CCC[C@H]2C(=O)N2CCC[C@H]2C(=O)N[C@@H](CCC(=O)O)C(N)=O)NC(=O)[C@H](Cc2ccccc2)NC(=O)[C@H](CO)NC(=O)[C@H](C)NC(=O)[C@@H]2CCCN2C1=O [Peptide 17]
[1]
  Effect on YAP(2-268):TEAD1 interaction compared with TEAD1 apo-form: significantly suppressed the interaction

## O=C(CCl)c1ccccc1Nc1cccc(C(F)(F)F)c1 [TED-347]
[1]; [6]
  ka ± SD of YAP(2-268):TEAD1 interaction in presence of binder: 1.2e+06 ± 120000 M⁻¹ s⁻¹
  kd ± SD of YAP(2-268):TEAD1 interaction in presence of binder: 0.34 ± 0.074 s⁻¹
[1]
  Effect on YAP(2-268):TEAD1 interaction compared with TEAD1 apo-form: decrease in affinity
[2]
  Kd: 1400 nM
[3]
  IC50: 340 nM

## Nc1ncnc2c1ncn2[C@@H]1O[C@H](CO[P@](=O)(O)O[P@](=O)(O)O[P@@](=O)(O)S)[C@@H](O)[C@H]1O [ATPγS]
[4]; saturating concentrations, data not shown
  Effect on DKC1:RuvBL1/RuvBL2 interaction: Identical results

## RuvBL1_D302N, RuvBL2_D299N: ATP hydrolysis RuvBL1/RuvBL2 mutant
[4]; compared with RuvBL1(1-456)/RuvBL2(1-463), partly data not shown
  Interaction with immobilized DKC1(1-514): Identical results

B1: Cellular biotinylated H/ACA ribonucleoprotein complex subunit Dyskerin pseudouridine synthase 1, His6-DKC1(1-514)-AviTag (natural protein, UniProt O60832 1-514, looked up)
chain: T3 sequence (O60832 1-514)
modifications: biotin on the AviTag (BirA, in the cells)
notes: Dyskerin pseudouridine synthase 1 (DKC1), residues 1-514; Captured from the lysate on a neutravidin-coated CM5 chip by the biotinylated AviTag; also called DCK1(1-514); DCK1(1-541); source: E. coli BL21(DE3), co-expressed with BirA-FLAG and D-biotin, in cleared lysate (desalted, not purified); not shown: His6, N-terminal, kept; AviTag, C-terminal, kept
[5]
  Kd: 23 nM
  koff: 0.015 s⁻¹
  kon: 650000 M⁻¹ s⁻¹
